Measured values published in PubChem BioAssay (NCI).
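Grown in 96-well plates, cells were treated for 48 hours with each compound at five concentrations. Insufficient inhibition: endpoint recorded as highest concentration tested. GI50: concentration for 50% inhibition of growth. TGI is the concentration that stops growth completely.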

Tests used:
Experiment in all cases: NCI tumour cell line growth inhibition, 48 h
HCT-15 colon = system: HCT-15 colon
COLO 205 colon = system: COLO 205 colon
OVCAR-3 ovarian = system: OVCAR-3 ovarian
T-47D breast = system: T-47D breast
A549 NSCLC = system: A549 NSCLC
MCF7 breast = system: MCF7 breast
SW-620 colon = system: SW-620 colon
HOP-92 NSCLC = system: HOP-92 NSCLC
SF-539 CNS = system: SF-539 CNS
MOLT-4 leukemia = system: MOLT-4 leukemia
DU-145 prostate = system: DU-145 prostate
SN12C renal = system: SN12C renal
HL-60(TB) leukemia = system: HL-60(TB) leukemia
OVCAR-4 ovarian = system: OVCAR-4 ovarian
HS 578T breast = system: HS 578T breast
EKVX NSCLC = system: EKVX NSCLC
MDA-MB-231 breast = system: MDA-MB-231 breast
NCI-H522 lung = system: NCI-H522 lung
ACHN renal = system: ACHN renal
PC-3 prostate = system: PC-3 prostate
HCT-116 colon = system: HCT-116 colon
SF-268 CNS = system: SF-268 CNS
MDA-MB-435 = system: MDA-MB-435
SR leukemia = system: SR leukemia
CAKI-1 renal = system: CAKI-1 renal
SK-OV-3 ovarian = system: SK-OV-3 ovarian
UACC-257 melanoma = system: UACC-257 melanoma
U251 CNS = system: U251 CNS
RXF 393 renal = system: RXF 393 renal
NCI-H460 lung = system: NCI-H460 lung
KM12 colon = system: KM12 colon
IGROV1 ovarian = system: IGROV1 ovarian
RPMI-8226 leukemia = system: RPMI-8226 leukemia
LOX IMVI melanoma = system: LOX IMVI melanoma
MDA-MB-468 breast = system: MDA-MB-468 breast
UO-31 renal = system: UO-31 renal
SK-MEL-2 melanoma = system: SK-MEL-2 melanoma
SK-MEL-5 melanoma = system: SK-MEL-5 melanoma
OVCAR-5 ovarian = system: OVCAR-5 ovarian
A498 renal = system: A498 renal
HCC-2998 colon = system: HCC-2998 colon
UACC-62 melanoma = system: UACC-62 melanoma
SK-MEL-28 melanoma = system: SK-MEL-28 melanoma
CCRF-CEM leukemia = system: CCRF-CEM leukemia
TK-10 renal = system: TK-10 renal
SNB-19 CNS = system: SNB-19 CNS
M14 melanoma = system: M14 melanoma
MALME-3M melanoma = system: MALME-3M melanoma
HOP-62 NSCLC = system: HOP-62 NSCLC
BT-549 breast = system: BT-549 breast
SNB-75 CNS = system: SNB-75 CNS
786-0 renal = system: 786-0 renal
K-562 leukemia = system: K-562 leukemia
OVCAR-8 ovarian = system: OVCAR-8 ovarian
NCI-H226 lung = system: NCI-H226 lung
HT29 colon = system: HT29 colon
SF-295 CNS = system: SF-295 CNS
NCI-H23 lung = system: NCI-H23 lung

Structure (SMILES): C=C1CCC2C3(C)COC(c4c(F)cccc4F)OC3CCC2(C)C1C/C=C1/C(=O)OCC1O (stereo unspecified)
- GI50 (HCT-15 colon): 1.75 µM
- TGI (HCT-15 colon): 4.12 µM
- GI50 (COLO 205 colon): 2.43 µM
- TGI (COLO 205 colon): 5.27 µM
- GI50 (OVCAR-3 ovarian): 2.02 µM
- TGI (OVCAR-3 ovarian): 4.12 µM
- GI50 (T-47D breast): 3.25 µM
- TGI (T-47D breast): 17.6 µM
- GI50 (A549 NSCLC): 4.05 µM
- TGI (A549 NSCLC): 17.2 µM
- GI50 (MCF7 breast): 1.95 µM
- TGI (MCF7 breast): 5.48 µM
- GI50 (SW-620 colon): 1.8 µM
- TGI (SW-620 colon): 3.63 µM
- GI50 (HOP-92 NSCLC): 2.94 µM
- TGI (HOP-92 NSCLC): 9.34 µM
- GI50 (SF-539 CNS): 1.81 µM
- TGI (SF-539 CNS): 3.3 µM
- GI50 (MOLT-4 leukemia): 3.37 µM
- TGI (MOLT-4 leukemia): 11.1 µM
- GI50 (DU-145 prostate): 4.16 µM
- TGI (DU-145 prostate): 14.9 µM
- GI50 (SN12C renal): 1.81 µM
- TGI (SN12C renal): 4.2 µM
- GI50 (HL-60(TB) leukemia): 2 µM
- TGI (HL-60(TB) leukemia): 5.03 µM
- GI50 (OVCAR-4 ovarian): 2.58 µM
- TGI (OVCAR-4 ovarian): 7.77 µM
- GI50 (HS 578T breast): 3.92 µM
- TGI (HS 578T breast): 30.5 µM
- GI50 (EKVX NSCLC): 13 µM
- TGI (EKVX NSCLC): 26.1 µM
- GI50 (MDA-MB-231 breast): 2.29 µM
- TGI (MDA-MB-231 breast): 5.45 µM
- GI50 (NCI-H522 lung): 1.65 µM
- TGI (NCI-H522 lung): 3.23 µM
- GI50 (ACHN renal): 1.75 µM
- TGI (ACHN renal): 3.16 µM
- GI50 (PC-3 prostate): 3.61 µM
- TGI (PC-3 prostate): 13.4 µM
- GI50 (HCT-116 colon): 1.61 µM
- TGI (HCT-116 colon): 3.04 µM
- GI50 (SF-268 CNS): 4.4 µM
- TGI (SF-268 CNS): 17.2 µM
- GI50 (MDA-MB-435): 1.97 µM
- TGI (MDA-MB-435): 4.37 µM
- GI50 (SR leukemia): 3.7 µM
- TGI (SR leukemia): 12.5 µM
- GI50 (CAKI-1 renal): 3.38 µM
- TGI (CAKI-1 renal): 11.3 µM
- GI50 (SK-OV-3 ovarian): 17.8 µM
- TGI (SK-OV-3 ovarian): 32.4 µM
- GI50 (UACC-257 melanoma): 2.28 µM
- TGI (UACC-257 melanoma): 8.77 µM
- GI50 (U251 CNS): 1.81 µM
- TGI (U251 CNS): 3.45 µM
- GI50 (RXF 393 renal): 3.46 µM
- TGI (RXF 393 renal): 11.4 µM
- GI50 (NCI-H460 lung): 3.06 µM
- TGI (NCI-H460 lung): 11.8 µM
- GI50 (KM12 colon): 2.54 µM
- TGI (KM12 colon): 6.88 µM
- GI50 (IGROV1 ovarian): 4.56 µM
- TGI (IGROV1 ovarian): 16.5 µM
- GI50 (RPMI-8226 leukemia): 2.37 µM
- TGI (RPMI-8226 leukemia): 5.77 µM
- GI50 (LOX IMVI melanoma): 1.59 µM
- TGI (LOX IMVI melanoma): 2.93 µM
- GI50 (MDA-MB-468 breast): 1.78 µM
- TGI (MDA-MB-468 breast): 3.58 µM
- GI50 (UO-31 renal): 1.73 µM
- TGI (UO-31 renal): 3.99 µM
- GI50 (SK-MEL-2 melanoma): 2.88 µM
- TGI (SK-MEL-2 melanoma): 8.52 µM
- GI50 (SK-MEL-5 melanoma): 4.53 µM
- TGI (SK-MEL-5 melanoma): 16.4 µM
- GI50 (OVCAR-5 ovarian): 2.17 µM
- TGI (OVCAR-5 ovarian): 5.06 µM
- GI50 (A498 renal): 19.8 µM
- TGI (A498 renal): 34.5 µM
- GI50 (HCC-2998 colon): 4.26 µM
- TGI (HCC-2998 colon): 15.8 µM
- GI50 (UACC-62 melanoma): 3.13 µM
- TGI (UACC-62 melanoma): 12 µM
- GI50 (SK-MEL-28 melanoma): 2.19 µM
- TGI (SK-MEL-28 melanoma): 4.9 µM
- GI50 (CCRF-CEM leukemia): 2.24 µM
- TGI (CCRF-CEM leukemia): 6.68 µM
- GI50 (TK-10 renal): 6.18 µM
- TGI (TK-10 renal): 19.4 µM
- GI50 (SNB-19 CNS): 8.4 µM
- TGI (SNB-19 CNS): 20.8 µM
- GI50 (M14 melanoma): 3.34 µM
- TGI (M14 melanoma): 12 µM
- GI50 (MALME-3M melanoma): 3.55 µM
- TGI (MALME-3M melanoma): 12.8 µM
- GI50 (HOP-62 NSCLC): 11.3 µM
- TGI (HOP-62 NSCLC): 24 µM
- GI50 (BT-549 breast): 1.89 µM
- TGI (BT-549 breast): 4.17 µM
- GI50 (SNB-75 CNS): 3.75 µM
- TGI (SNB-75 CNS): 16.4 µM
- GI50 (786-0 renal): 1.8 µM
- TGI (786-0 renal): 3.28 µM
- GI50 (K-562 leukemia): 3.12 µM
- TGI (K-562 leukemia): 11.3 µM
- GI50 (OVCAR-8 ovarian): 2.26 µM
- TGI (OVCAR-8 ovarian): 7.04 µM
- GI50 (NCI-H226 lung): 1.78 µM
- TGI (NCI-H226 lung): 3.42 µM
- GI50 (HT29 colon): 2.06 µM
- TGI (HT29 colon): 4.26 µM
- GI50 (SF-295 CNS): 1.94 µM
- TGI (SF-295 CNS): 4.67 µM
- GI50 (NCI-H23 lung): 5.66 µM
- TGI (NCI-H23 lung): 18.5 µM
